Paper PMC9024521, “4-Heteroaryl Substituted Amino-3,5-Dicyanopyridines as New Adenosine Receptor Ligands: Novel Insights on Structure-Activity Relationships and Perspectives” (Pharmaceuticals, 2022)

Experiments:
hA1AR [1] = target: T1, hA1AR (Homo sapiens, UniProt P30542); assay: Competition binding, [3H]DPCPX, hA1 CHO cell membranes; details: displacement of [3H]DPCPX, hA1 CHO cells; mean ± SEM of four assays
T1 construct: host or cells: CHO cells
T1 sequence (P30542 1-326): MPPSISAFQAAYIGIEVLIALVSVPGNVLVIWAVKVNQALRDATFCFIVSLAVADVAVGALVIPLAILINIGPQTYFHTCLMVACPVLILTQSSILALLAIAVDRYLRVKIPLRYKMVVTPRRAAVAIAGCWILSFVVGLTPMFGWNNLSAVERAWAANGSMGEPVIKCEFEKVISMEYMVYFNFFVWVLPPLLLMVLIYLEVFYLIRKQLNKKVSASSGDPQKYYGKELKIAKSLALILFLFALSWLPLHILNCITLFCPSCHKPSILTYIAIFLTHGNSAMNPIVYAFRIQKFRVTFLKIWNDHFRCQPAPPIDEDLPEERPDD
Protocol: (§1) CHO cells transfected with hA1, hA2A, hA2B and hA3 ARs (Perkin Elmer, Boston, MA, USA) were grown adherently and maintained in Dulbecco’s modified Eagle’s medium with nutrient mixture F12, containing 10% fetal calf serum, penicillin (100 U/mL), streptomycin (100 μg/mL), L-glutamine (2 mM) and geneticine (G418; 0.2 mg/mL), at 37 °C, in 5% CO2/95% air, until their use in cAMP assays. For membrane preparation, the culture medium was removed, and the cells were washed with phosphate-buffered saline and scraped off T75 flasks in ice-cold hypotonic buffer (5 mM Tris HCl, 1 mM EDTA, pH 7.4). The cell suspension was homogenized with a Polytron, centrifuged for 30 min at 40,000× g, at 4 °C, and the resulting membrane pellet was used for competition binding experiments.
(§2) All synthesized compounds were tested for their affinity to hA1, hA2A and hA3 ARs. Competition experiments to hA1AR were carried out by incubating 1 nM [^3H]-8-cyclopentyl-1,3-dipropylxanthine ([^3H]-DPCPX) with membrane suspension (50 μg of protein/100 μL) and different concentrations of the examined compounds at 25 °C for 90 min in 50 mM Tris HCl, pH 7.4. Non-specific binding was defined as binding in the presence of 1 μM DPCPX and was always <10% of the total binding. Inhibition experiments to hA2A ARs were performed by incubating the radioligand [^3H]-4-(-2-[7-amino-2-{2-furyl}{1,2,4}triazolo{2,3-a} {1,3,5}triazin-5-yl-amino]ethyl)phenol ([^3H]-ZM241385) (1 nM) with the membrane suspension (50 μg of protein/100 μL) and different concentrations of the examined compounds for 60 min, at 4 °C, in 50 mM Tris HCl (pH 7.4), 10 mM MgCl2. Non-specific binding was determined in the presence of ZM241385 (1 μM) and was about 20% of the total binding. Competition binding experiments to A3ARs were carried out by incubating the membrane suspension (50 μg of protein/100 μL) with 0.5 nM [^125I]-N6-(4-aminobenzyl)-N-methylcarboxamidoadenosine ([^125I]-ABMECA) in the presence of different concentrations of the examined compounds for an incubation time of 120 min, at 4 °C, in 50 mM Tris HCl (pH 7.4), 10 mM MgCl2, 1 mM EDTA. Non-specific binding was defined as binding in the presence of 1 μM ABMECA and was always <10% of the total binding. Bound and free radioactivity were separated by filtering the assay mixture through Whatman GF/B glass-fiber filters, using a Brandel cell harvester (Brandel Instruments, Unterföhring, Germany). The filter bound radioactivity was counted by Packard Tri Carb 2810 TR scintillation counter (Perkin Elmer).
(§3) The protein concentration was determined according to a Bio-Rad method, with bovine albumin as a standard reference. Inhibitory binding constant (Ki) values were calculated from those of IC50 according to the Cheng–Prusoff equation, Ki = IC50/(1 + [C*]/KD*), where [C*] is the concentration of the radioligand, and KD* its dissociation constant. Ki and IC50 values were calculated by non-linear regression analysis, using the equation for a sigmoid concentration-response curve (Graph-PAD Prism, San Diego, CA, USA).

hA2AAR = target: T2, hA2AAR (Homo sapiens, UniProt P29274); assay: Competition binding, [3H]ZM241385, hA2A CHO cell membranes; details: displacement of [3H]ZM241385, hA2A CHO cells; mean ± SEM of four assays
T2 construct: host or cells: CHO cells
Protocol: as §1, §2, §3

hA3AR = target: T3, hA3AR (Homo sapiens, UniProt P0DMS8); assay: Competition binding, [125I]AB-MECA, hA3 CHO cell membranes; details: for Ki: displacement of [125I]AB-MECA, hA3 CHO cells, mean ± SEM of four assays; for inhibition at 1 µM: 1 µM compound, [125I]AB-MECA binding, read-out: I% hA3 (percentage of inhibition)
T3 construct: host or cells: CHO cells
T3 sequence (P0DMS8 1-318): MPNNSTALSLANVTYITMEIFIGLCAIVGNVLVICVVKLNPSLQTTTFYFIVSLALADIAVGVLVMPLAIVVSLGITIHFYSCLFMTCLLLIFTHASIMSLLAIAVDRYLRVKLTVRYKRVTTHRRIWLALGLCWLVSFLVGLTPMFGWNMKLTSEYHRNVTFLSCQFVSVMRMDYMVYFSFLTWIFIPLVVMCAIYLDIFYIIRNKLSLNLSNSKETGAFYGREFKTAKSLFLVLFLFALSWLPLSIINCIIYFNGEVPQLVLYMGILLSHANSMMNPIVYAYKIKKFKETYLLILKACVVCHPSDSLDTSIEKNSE
Protocol: as §1, §2, §3

hA2B AR = target: T4, hA2B AR (Homo sapiens, UniProt P29275); assay: cAMP assay in CHO cells expressing hA2B AR (stimulation of cAMP production); type: cell-based; details: for Emax at 1 µM: CHO, 1 µM compound, in comparison with NECA (1 µM = 100%), read-out: Efficacy hA2B (cAMP assay) (converted); for EC50: hA2B CHO cells, mean ± SEM of four assays
T4 construct: host or cells: CHO cells
T4 sequence (P29275 1-332): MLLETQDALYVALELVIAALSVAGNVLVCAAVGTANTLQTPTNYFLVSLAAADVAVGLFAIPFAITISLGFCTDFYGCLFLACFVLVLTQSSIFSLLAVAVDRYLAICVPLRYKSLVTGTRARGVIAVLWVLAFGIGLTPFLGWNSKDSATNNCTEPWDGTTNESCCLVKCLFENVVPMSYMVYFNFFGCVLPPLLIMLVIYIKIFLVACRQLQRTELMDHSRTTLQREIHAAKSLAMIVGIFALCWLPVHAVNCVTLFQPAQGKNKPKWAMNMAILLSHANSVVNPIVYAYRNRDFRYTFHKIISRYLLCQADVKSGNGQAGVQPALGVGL
Protocol: (§4) The amino-3,5-dicyanopyridines 1–21 were tested for their affinity at hA1, hA2A and hA3 ARs, stably transfected in Chinese Hamster Ovary (CHO) cells. Moreover, they were also studied as hA2B agonists by evaluating their stimulatory effect on cAMP production in CHO cells, stably expressing the hA2B AR. […] Due to their interesting pan profile, both compounds 1 and 5 were evaluated as AR agonists also at the hA2A and hA3 subtypes.
as §1
(§5) CHO cells transfected with hAR subtypes were washed with phosphate-buffered saline, detached with tripsine and centrifuged for 10 min at 200× g. Cells were seeded in a 96-well white half-area microplate (Perkin Elmer, Boston, USA) in a stimulation buffer composed of Hank Balanced Salt Solution, 5 mM HEPES, 0.5 mM Ro 20–1724, 0.1% BSA. The cAMP levels were then quantified by using the AlphaScreen cAMP Detection Kit (Perkin Elmer, Boston, MA, USA), following the manufacturer’s instructions. At the end of the experiments, the plates were read with a Perkin Elmer EnSight Multimode Plate Reader.

hA1AR [2] = target: T1, hA1AR; assay: Modulation of Forskolin-stimulated cAMP levels in hA1 CHO cells; type: cell-based
Protocol: as §4, §1, §5

T2 sequence (P29274 whole entry): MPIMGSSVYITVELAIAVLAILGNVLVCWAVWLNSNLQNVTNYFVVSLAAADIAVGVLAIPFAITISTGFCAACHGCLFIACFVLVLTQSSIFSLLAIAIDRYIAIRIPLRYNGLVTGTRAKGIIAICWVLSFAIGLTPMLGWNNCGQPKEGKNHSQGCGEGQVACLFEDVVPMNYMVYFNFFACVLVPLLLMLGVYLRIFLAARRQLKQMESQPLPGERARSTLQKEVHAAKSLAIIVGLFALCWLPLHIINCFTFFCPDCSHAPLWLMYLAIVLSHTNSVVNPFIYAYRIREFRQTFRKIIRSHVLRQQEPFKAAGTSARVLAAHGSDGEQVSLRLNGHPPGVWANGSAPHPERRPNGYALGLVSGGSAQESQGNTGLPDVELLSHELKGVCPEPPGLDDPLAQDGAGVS

| Compound | Ki (hA1AR [1]) | Ki (hA2AAR) | Ki (hA3AR) | Emax at 1 µM (hA2B AR) | EC50 (hA2B AR) | melting point | inhibition at 1 µM (hA3AR) | EC50 (hA1AR [2]; footnote c, mean ± SEM of four experiments, read-out: hA1AR EC50 or IC50, potency to modulate Forskolin-stimulated cAMP levels) | hA1AR Efficacy (hA1AR [2]; normalized: CCPA full agonist = 100%, DPCPX inverse agonist = −100%) | hA1AR Profile (hA1AR [2]; pharmacological profile in cAMP assay) |
| --- | --- | --- | --- | --- | --- | --- | --- | --- | --- | --- |
| Br.N#Cc1c(N)nc(SCc2ncc[nH]2)c(C#N)c1-c1ccc(CO)o1 [Compound 2, 2-Amino-4-[5-(hydroxymethyl)furan-2-yl]-6-[(1H-imidazol-2-ylmethyl)sulfanyl]pyridine-3,5-dicarbonitrile hydrobromide] | 190 ± 16 nM | 233 ± 19 nM | 290 ± 23 nM | 8% | > 1000 nM | 293 to 294 °C | – | – | – | – |
| Cc1ccc(-c2c(C#N)c(N)nc(SCc3ncc[nH]3)c2C#N)o1 [Compound 3, 2-Amino-6-[(1H-imidazol-2-ylmethyl)sulfanyl]-4-(5-methylfuran-2-yl)pyridine-3,5-dicarbonitrile] | 10.1 ± 0.8 nM | 10.5 ± 0.9 nM | 279 ± 21 nM | 1% | > 1000 nM | – | – | – | – | – |
| N#Cc1c(N)nc(SCc2ncc[nH]2)c(C#N)c1-c1ccoc1 [Compound 4, 2-Amino-4-(furan-3-yl)-6-[(1H-imidazol-2-ylmethyl)sulfanyl]pyridine-3,5-dicarbonitrile] | 0.77 ± 0.09 nM | 37 ± 3 nM | 274 ± 23 nM | 42% | 2.32 ± 0.21 nM | – | – | – | – | – |
| N#Cc1c(N)nc(SCc2ncc[nH]2)c(C#N)c1-c1ccsc1 [Compound 6, 2-Amino-6-[(1H-imidazol-2-ylmethyl)sulfanyl]-4-(thiophen-3-yl)pyridine-3,5-dicarbonitrile] | 1.01 ± 0.09 nM | 55 ± 6 nM | 221 ± 20 nM | 47% | 3.15 ± 0.29 nM | 239 to 241 °C (dec.) | – | – | – | – |
| N#Cc1c(N)nc(SCc2ncc[nH]2)c(C#N)c1-c1ccncc1 [Compound 7, 2-Amino-6-[(1H-imidazol-2-ylmethyl)sulfanyl]-4,4′-bipyridine-3,5-dicarbonitrile] | 8.85 ± 0.82 nM | 81 ± 7 nM | – | 36% | 12.5 ± 1.3 nM | 230 °C (dec.) | 26% | – | – | – |
| N#Cc1c(N)nc(SCc2ncc[nH]2)c(C#N)c1-c1cccnc1 [Compound 8, 2′-Amino-6′-[(1H-imidazol-2-ylmethyl)sulfanyl]-3,4′-bipyridine-3′,5′-dicarbonitrile] | 5.26 ± 0.48 nM | 463 ± 38 nM | – | 58% | 63 ± 5 nM | 244 to 245 °C (dec.) | 19% | – | – | – |
| N#Cc1c(N)nc(SCc2ncc[nH]2)c(C#N)c1-c1ccc(O)nc1 [Compound 10, 2′-Amino-6-hydroxy-6′-[(1H-imidazol-2-ylmethyl)sulfanyl]-3,4′-bipyridine-3′,5′-dicarbonitrile] | 149 ± 11 nM | 613 ± 53 nM | – | 1% | > 1000 nM | – | 23% | – | – | – |
| N#Cc1c(N)nc(SCC(=O)NCc2ncc[nH]2)c(C#N)c1-c1ccco1 [Compound 14, 2-{[6-Amino-3,5-dicyano-4-(furan-2-yl)pyridin-2-yl]sulfanyl}-N-(1H-imidazol-2-ylmethyl)acetamide] | 87 ± 7 nM | 817 ± 71 nM | – | 6% | > 1000 nM | – | 33% | – | – | – |
| N#Cc1c(N)nc(SCc2csc(C(=O)NCCc3cnc[nH]3)n2)c(C#N)c1-c1ccco1 [Compound 17, 4-({[6-Amino-3,5-dicyano-4-(furan-2-yl)pyridin-2-yl]sulfanyl}methyl)-N-[2-(1H-imidazol-5-yl)ethyl]-1,3-thiazole-2-carboxamide] | 33 ± 3 nM | 279 ± 22 nM | 542 ± 48 nM | 6% | > 1000 nM | – | – | 38 ± 3 nM | 54 ± 4% | Partial Agonist |
| CC(=O)Nc1nc(SCc2ncc[nH]2)c(C#N)c(-c2ccco2)c1C#N [Compound 21, N-{3,5-dicyano-4-(furan-2-yl)-6-[(1H-imidazol-2-ylmethyl)sulfanyl]pyridin-2-yl}acetamide] | 34 ± 3 nM | 394 ± 27 nM | 768 ± 63 nM | 1% | > 1000 nM | – | – | – | – | – |
